Assay results reported in patent US20250195521A1 (Revolution Medicines, Inc., priority 2020, published 2025).
pIC50: −log10 of the molar value.

Legend:
[1] = system: AsPC-1 (K-Ras G12D); assay: CellTiter-Glo cell viability assay, AsPC-1; type: cell-based, human; conditions: Homo sapiens, ASPC1, 120 h; K-Ras G12D, 5-day treatment; read-out: AsPC-1 Cell Viability IC50
Method: Note—The following protocol describes a procedure for monitoring cell viability of K-Ras mutant cancer cell lines in response to a compound of the invention. Other RAS isoforms may be employed, though the number of cells to be seeded will vary based on cell line used.
Test compounds (132.5 nL) were directly dispensed into the assay plates containing cells. […] On day 5, assay plates and their contents were equilibrated to room temperature for approximately 30 minutes. […] Luminescence was measured using the PerkinElmer Enspire. Data were normalized by the following: (Sample signal/Avg. DMSO)*100. The data were fit using a four-parameter logistic fit.

[2] = biological target: K-Ras G12C(GMP-PNP) binding to BRAF RBD (Homo sapiens (Human), UniProt P01116+P62937, G12C); assay: Disruption of BRAF RBD interaction with K-Ras (FRET / MOA assay), K-Ras G12C; type: biochemical; conditions: read-out: KRAS G12C FRET IC50
Sequence of K-Ras G12C(GMP-PNP) binding to BRAF RBD (P01116 other isoform, or with tags, fused parts or gaps G12C): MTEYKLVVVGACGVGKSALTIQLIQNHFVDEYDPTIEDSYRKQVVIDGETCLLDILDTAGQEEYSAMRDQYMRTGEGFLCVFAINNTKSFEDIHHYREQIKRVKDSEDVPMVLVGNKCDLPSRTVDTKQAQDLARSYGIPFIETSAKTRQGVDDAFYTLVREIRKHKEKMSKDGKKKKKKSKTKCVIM
Sequence of K-Ras G12C(GMP-PNP) binding to BRAF RBD (P62937 whole entry): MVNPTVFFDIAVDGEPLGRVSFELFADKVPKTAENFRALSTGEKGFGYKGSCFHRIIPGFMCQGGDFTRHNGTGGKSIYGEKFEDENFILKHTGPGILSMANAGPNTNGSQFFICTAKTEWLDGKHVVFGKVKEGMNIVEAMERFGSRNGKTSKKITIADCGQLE
Method in brief: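 First, test compounds in a 10-point 3-fold series (30 μM final top) were incubated for 3 hours at 25° C with nucleotide-loaded Ras, cyclophilin A and a BRAF RBD construct. Next, Eu anti-His and allophycocyanin anti-GST detection reagents were added for 1.5 hours. Finally, IC50s were derived from loss of TR-FRET signal against DMSO.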

[3] = system: NCI-H358 cells (K-Ras G12C); assay: CellTiter-Glo cell viability, NCI-H358; type: cell-based, human; conditions: Homo sapiens, NCI-H358, 120 h, K-Ras G12C, 5-day treatment; read-out: H358 Cell Viability IC50
Method in brief: (§1)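 Viability read by luminescence on day 5 after direct compound addition to cells, following ~30 min room-temperature equilibration. Values expressed as percent of mean DMSO signal, curves fitted with a four-parameter logistic model.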

[4] = system: Capan-1 cells (K-Ras G12V); assay: CellTiter-Glo cell viability, Capan-1; type: cell-based, human; conditions: Homo sapiens, CAPAN-1, 120 h, K-Ras G12V, 5-day treatment; read-out: Capan-1 Cell Viability IC50
Method in brief: as §1

[5] = system: NCI-H358 (K-Ras G12C); assay: CellTiter-Glo cell viability assay, NCI-H358; type: cell-based, human; conditions: Homo sapiens, NCI-H358, 120 h, 5-day treatment; read-out: H358 Cell Viability assay data (K-Ras G12C, IC50)
Method in brief: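 Viability read-out was luminescent (CellTiter-Glo) on day 5 of compound exposure in K-Ras G12C NCI-H358 cells. Values were expressed as percent of mean DMSO signal and fitted with a four-parameter logistic curve.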

[6] = biological target: KRAS G12C (Homo sapiens (Human), UniProt P01116+P62937, G12C); assay: Ras-Raf disruption/FRET/MOA assay (BRAF RBD, Cyclophilin A); type: biochemical; conditions: read-out: KRAS G12C FRET IC50
Sequence of KRAS G12C (P01116-2 other isoform, or with tags, fused parts or gaps G12C): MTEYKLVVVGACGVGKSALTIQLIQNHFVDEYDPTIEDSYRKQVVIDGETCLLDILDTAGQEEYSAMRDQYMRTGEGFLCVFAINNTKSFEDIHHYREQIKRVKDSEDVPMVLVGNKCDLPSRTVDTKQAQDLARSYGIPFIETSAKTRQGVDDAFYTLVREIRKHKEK
Sequence of KRAS G12C (P62937 whole entry): as the sequence (P62937 whole entry) above
Method in brief: (§2)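 TR-FRET readout: anti-His Eu-W1024 (10 nM) and anti-GST allophycocyanin (50 nM) added after 3 h, 25° C compound incubation, then 1.5 h more. Decrease in FRET ratio versus DMSO wells marks Ras:RAF disruption; IC50 reported.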

[7] = biological target: KRAS G13C (Homo sapiens (Human), UniProt P01116+P62937, G13C); assay: as above; type: biochemical; conditions: read-out: KRAS G13C FRET IC50
Sequence of KRAS G13C (P01116 other isoform, or with tags, fused parts or gaps G13C): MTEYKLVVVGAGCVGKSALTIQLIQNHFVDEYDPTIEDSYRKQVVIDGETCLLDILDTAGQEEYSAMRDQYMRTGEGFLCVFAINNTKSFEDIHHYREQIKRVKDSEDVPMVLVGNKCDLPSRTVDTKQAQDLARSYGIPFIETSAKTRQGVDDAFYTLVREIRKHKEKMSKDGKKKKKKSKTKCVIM
Sequence of KRAS G13C (P62937 whole entry): as the sequence (P62937 whole entry) above
Method in brief: as §2

[8] = biological target: KRAS G12S (Homo sapiens (Human), UniProt P01116+P62937, G12S); assay: as above; type: biochemical; conditions: read-out: KRAS G12S FRET IC50
Sequence of KRAS G12S (P01116 other isoform, or with tags, fused parts or gaps G12S): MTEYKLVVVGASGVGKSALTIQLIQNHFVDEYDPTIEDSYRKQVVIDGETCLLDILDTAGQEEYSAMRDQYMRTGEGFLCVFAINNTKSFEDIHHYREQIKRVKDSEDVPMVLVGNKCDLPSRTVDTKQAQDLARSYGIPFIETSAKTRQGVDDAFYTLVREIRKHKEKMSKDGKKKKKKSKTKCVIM
Sequence of KRAS G12S (P62937 whole entry): as the sequence (P62937 whole entry) above
Method in brief: as §2

[9] = biological target: NRAS Q61R (Homo sapiens (Human), UniProt P01111+P62937, Q61R); assay: as above; type: biochemical
Sequence of NRAS Q61R (P01111 whole entry Q61R): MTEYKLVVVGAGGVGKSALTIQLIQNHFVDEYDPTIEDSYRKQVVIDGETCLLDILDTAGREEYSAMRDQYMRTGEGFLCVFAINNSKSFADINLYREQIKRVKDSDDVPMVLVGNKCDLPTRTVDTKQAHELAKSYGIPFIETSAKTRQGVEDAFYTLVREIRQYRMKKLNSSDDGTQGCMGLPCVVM
Sequence of NRAS Q61R (P62937 whole entry): as the sequence (P62937 whole entry) above
Method in brief: (§3)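 Measured: compound-facilitated Cyclophilin A:Ras complex blocking RAF RBD binding. Conditions: 12.5 nM Ras-GMPPNP, 50 nM BRAF RBD, 25 μM CypA, 3 h plus 1.5 h detection. Output: IC50 from TR-FRET ratio.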

[10] = biological target: NRAS WT (Homo sapiens (Human), UniProt P01111+P62937); assay: as above; type: biochemical
Sequence of NRAS WT (P01111 whole entry): as the sequence (P01111 whole entry Q61R) above, with R61Q counted along it
Sequence of NRAS WT (P62937 whole entry): as the sequence (P62937 whole entry) above
Method in brief: as §3

[11] = biological target: KRAS G12D (Homo sapiens (Human), UniProt P01116+P62937, G12D); assay: as above; type: biochemical; conditions: read-out: KRAS G12D FRET IC50
Sequence of KRAS G12D (P01116 other isoform, or with tags, fused parts or gaps G12D): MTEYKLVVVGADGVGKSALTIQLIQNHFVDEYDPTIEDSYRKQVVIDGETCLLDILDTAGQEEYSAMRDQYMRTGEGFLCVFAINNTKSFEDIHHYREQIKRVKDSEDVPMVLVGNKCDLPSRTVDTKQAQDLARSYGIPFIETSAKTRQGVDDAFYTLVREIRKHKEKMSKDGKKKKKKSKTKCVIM
Sequence of KRAS G12D (P62937 whole entry): as the sequence (P62937 whole entry) above
Method in brief: as §2

[12] = biological target: NRAS Q61K (Homo sapiens (Human), UniProt P01111+P62937, Q61K); assay: as above; type: biochemical
Sequence of NRAS Q61K (P01111 whole entry Q61K): as the sequence (P01111 whole entry Q61R) above, with R61K counted along it
Sequence of NRAS Q61K (P62937 whole entry): as the sequence (P62937 whole entry) above
Method in brief: as §3

[13] = biological target: KRAS G13D (Homo sapiens (Human), UniProt P01116+P62937, G13D); assay: as above; type: biochemical; conditions: read-out: KRAS G13D FRET data IC50
Sequence of KRAS G13D (P01116 other isoform, or with tags, fused parts or gaps G13D): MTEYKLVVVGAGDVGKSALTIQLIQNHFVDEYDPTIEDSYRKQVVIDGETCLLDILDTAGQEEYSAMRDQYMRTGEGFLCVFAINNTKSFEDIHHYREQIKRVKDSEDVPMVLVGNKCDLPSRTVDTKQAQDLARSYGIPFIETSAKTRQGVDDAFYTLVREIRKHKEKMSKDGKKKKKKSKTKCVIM
Sequence of KRAS G13D (P62937 whole entry): as the sequence (P62937 whole entry) above
Method in brief: as §2

[14] = biological target: KRAS WT (Homo sapiens (Human), UniProt P01116+P62937); assay: as above; type: biochemical; conditions: read-out: KRAS WT FRET data IC50
Sequence of KRAS WT (P01116 other isoform, or with tags, fused parts or gaps): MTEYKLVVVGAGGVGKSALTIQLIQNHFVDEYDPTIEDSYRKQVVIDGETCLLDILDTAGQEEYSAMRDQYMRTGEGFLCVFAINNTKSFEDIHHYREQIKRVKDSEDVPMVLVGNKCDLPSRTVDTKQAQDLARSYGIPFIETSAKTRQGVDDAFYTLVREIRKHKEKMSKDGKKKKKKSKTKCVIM
Sequence of KRAS WT (P62937 whole entry): as the sequence (P62937 whole entry) above
Method in brief: as §2

[15] = biological target: KRAS G12V (Homo sapiens (Human), UniProt P01116+P62937, G12V); assay: as above; type: biochemical; conditions: read-out: KRAS G12V FRET IC50
Sequence of KRAS G12V (P01116 other isoform, or with tags, fused parts or gaps G12V): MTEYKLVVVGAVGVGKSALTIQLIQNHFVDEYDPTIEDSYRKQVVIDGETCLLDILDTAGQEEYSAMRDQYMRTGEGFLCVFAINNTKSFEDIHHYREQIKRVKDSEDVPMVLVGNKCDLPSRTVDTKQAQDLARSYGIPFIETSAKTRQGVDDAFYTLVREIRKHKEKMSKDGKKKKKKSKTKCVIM
Sequence of KRAS G12V (P62937 whole entry): as the sequence (P62937 whole entry) above
Method in brief: as §2

[16] = biological target: KRAS Q61H (Homo sapiens (Human), UniProt P01116+P62937, Q61H); assay: as above; type: biochemical
Sequence of KRAS Q61H (P01116 other isoform, or with tags, fused parts or gaps Q61H): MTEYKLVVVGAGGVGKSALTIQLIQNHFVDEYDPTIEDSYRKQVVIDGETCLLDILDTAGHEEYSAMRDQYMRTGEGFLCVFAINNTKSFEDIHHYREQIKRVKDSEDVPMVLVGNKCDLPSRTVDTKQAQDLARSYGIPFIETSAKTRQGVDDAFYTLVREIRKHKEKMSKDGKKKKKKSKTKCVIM
Sequence of KRAS Q61H (P62937 whole entry): as the sequence (P62937 whole entry) above
Method in brief: as §2

[17] = biological target: NRAS G12C (Homo sapiens (Human), UniProt P01111+P62937, G12C); assay: as above; type: biochemical; conditions: read-out: NRAS G12C FRET data IC50
Sequence of NRAS G12C (P01111 whole entry G12C): as the sequence (P01111 whole entry Q61R) above, with G12C, R61Q counted along it
Sequence of NRAS G12C (P62937 whole entry): as the sequence (P62937 whole entry) above
Method in brief: as §3

SMILES | pIC50 [2] | pIC50 [3] | pIC50 [5] | pIC50 [6] | pIC50 [7] | pIC50 [8] | pIC50 [9] | pIC50 [10] | pIC50 [11] | pIC50 [12] | pIC50 [13] | pIC50 [14] | pIC50 [15] | pIC50 [16] | pIC50 [17] | pIC50 [1] | pIC50 [4]
CCn1c(-c2cccnc2[C@H](C)OC)c2c3cc(ccc31)-c1cc(O)cc(c1)C[C@H](NC(=O)[C@H](C(C)C)N(C)C(=O)N1CCN(C(=O)[C@@H]3CN3)C(=O)C1)C(=O)N1CCC[C@H](N1)C(=O)OCC(C)(C)C2 (atropisomer, axis not shown) [Example 194] |  |  |  |  |  |  |  |  |  |  |  |  |  |  |  | < 5.00 | 
CCn1c(-c2cccnc2[C@H](C)OC)c2c3cc(ccc31)-c1csc(n1)C[C@H](NC(=O)[C@@H]1CCO1)C(=O)N1CCC[C@H](N1)C(=O)OCC(C)(C)C2 [Compound A359] | 7.00 to 8.00 | 5.00 to 6.00 | 7.00 to 8.00 | 6.00 to 7.00 | 6.00 to 7.00 | 5.00 to 6.00 | 5.00 to 6.00 | 6.00 to 7.00 | 5.00 to 6.00 | 6.00 to 7.00 | 5.00 to 6.00 | 5.00 to 6.00 | 6.00 to 7.00 | 6.00 to 7.00 | 6.00 to 7.00 |  | 5.00 to 6.00
CCn1c(-c2cccnc2[C@H](C)OC)c2c3cc(ccc31)-c1csc(n1)C[C@H](NC(=O)[C@H](C(C)C)N(C)C(=O)N1CC[C@@]13CCCN(C)C3)C(=O)N1CCC[C@H](N1)C(=O)OCC(C)(C)C2 [Compound A468] | 6.00 to 7.00 |  | 7.00 to 8.00 | 6.00 to 7.00 | 6.00 to 7.00 | 6.00 to 7.00 | 6.00 to 7.00 | 6.00 to 7.00 | 6.00 to 7.00 | 6.00 to 7.00 | 6.00 to 7.00 | 6.00 to 7.00 | 5.00 to 6.00 | 7.00 to 8.00 | 6.00 to 7.00 |  | 6.00 to 7.00
CCn1c(-c2cccnc2[C@H](C)OC)c2c3cc(ccc31)-c1csc(n1)C[C@H](NC(=O)[C@H](C(C)C)N(C)C(=O)N(C)C[C@H]1CCN1C)C(=O)N1CCC[C@H](N1)C(=O)OCC(C)(C)C2 [Compound A469] | 6.00 to 7.00 |  | 6.00 to 7.00 | 6.00 to 7.00 | 6.00 to 7.00 | 6.00 to 7.00 | 5.00 to 6.00 | 6.00 to 7.00 | 6.00 to 7.00 | 6.00 to 7.00 | 6.00 to 7.00 | 6.00 to 7.00 | 5.00 to 6.00 | 6.00 to 7.00 | 6.00 to 7.00 |  | 6.00 to 7.00
CCn1c(-c2cccnc2[C@H](C)OC)c2c3cc(ccc31)-c1cc(O)cc(c1)C[C@H](NC(=O)[C@H](C(C)C)N(C)C(=O)N1CCN(C(=O)[C@H]3CN3)C(=O)C1)C(=O)N1CCC[C@H](N1)C(=O)OCC(C)(C)C2 [Example 143] |  |  |  |  |  |  |  |  |  |  |  |  |  |  |  | < 5.00 | 

Continued, in another order:

pIC50 [2] | pIC50 [3] | pIC50 [5] | pIC50 [6] | pIC50 [7] | pIC50 [8] | pIC50 [9] | pIC50 [10] | pIC50 [11] | pIC50 [12] | pIC50 [13] | pIC50 [14] | pIC50 [15] | pIC50 [16] | pIC50 [17] | SMILES | pIC50 [1] | pIC50 [4]
6.00 to 7.00 |  | 7.00 to 8.00 | 6.00 to 7.00 | 6.00 to 7.00 | 6.00 to 7.00 | 5.00 to 6.00 | 6.00 to 7.00 | 5.00 to 6.00 | 5.00 to 6.00 | 6.00 to 7.00 | 6.00 to 7.00 | 5.00 to 6.00 | 6.00 to 7.00 | 6.00 to 7.00 | CCn1c(-c2cccnc2[C@H](C)OC)c2c3cc(ccc31)-c1csc(n1)C[C@H](NC(=O)[C@H](C(C)C)N(C)C(=O)N(C)C[C@H]1CCCN1C)C(=O)N1CCC[C@H](N1)C(=O)OCC(C)(C)C2 [Compound A473] |  | 6.00 to 7.00
6.00 to 7.00 | 6.00 to 7.00 | 6.00 to 7.00 | 6.00 to 7.00 | 6.00 to 7.00 | 6.00 to 7.00 | 5.00 to 6.00 | 6.00 to 7.00 | 5.00 to 6.00 | 5.00 to 6.00 | 5.00 to 6.00 | 6.00 to 7.00 | 5.00 to 6.00 | 6.00 to 7.00 | 6.00 to 7.00 | CCn1c(-c2cccnc2[C@H](C)OC)c2c3cc(ccc31)-c1csc(n1)C[C@H](NC(=O)[C@H](C(C)C)N(C)C(=O)N1CC[C@H]1CN(C)C)C(=O)N1CCC[C@H](N1)C(=O)OCC(C)(C)C2 [Compound A508] |  | 6.00 to 7.00
6.00 to 7.00 | 6.00 to 7.00 | 7.00 to 8.00 | 6.00 to 7.00 | 6.00 to 7.00 | 5.00 to 6.00 | 5.00 to 6.00 | 6.00 to 7.00 | 5.00 to 6.00 | 6.00 to 7.00 | 5.00 to 6.00 | 6.00 to 7.00 | 5.00 to 6.00 | 6.00 to 7.00 | 6.00 to 7.00 | CCn1c(-c2cccnc2[C@H](C)OC)c2c3cc(ccc31)-c1csc(n1)C[C@H](NC(=O)[C@H](C(C)C)N(C)C(=O)N1CCN(C)[C@@H](c3ccccc3)C1)C(=O)N1CCC[C@H](N1)C(=O)OCC(C)(C)C2 [Compound A524] |  | 6.00 to 7.00
6.00 to 7.00 | 7.00 to 8.00 | 6.00 to 7.00 | 6.00 to 7.00 | 6.00 to 7.00 | 6.00 to 7.00 | 6.00 to 7.00 | 6.00 to 7.00 | 6.00 to 7.00 | 6.00 to 7.00 | 6.00 to 7.00 | 6.00 to 7.00 | 5.00 to 6.00 | 7.00 to 8.00 | 6.00 to 7.00 | CCn1c(-c2cccnc2[C@H](C)OC)c2c3cc(ccc31)-c1csc(n1)C[C@H](NC(=O)[C@H](C(C)C)N(C)C(=O)N(C)[C@H]1CCN(C)C1)C(=O)N1CCC[C@H](N1)C(=O)OCC(C)(C)C2 [Compound A563] |  | 7.00 to 8.00
7.00 to 8.00 | 7.00 to 8.00 | 7.00 to 8.00 | 6.00 to 7.00 | 6.00 to 7.00 | 6.00 to 7.00 | 6.00 to 7.00 | 6.00 to 7.00 | 6.00 to 7.00 | 6.00 to 7.00 | 6.00 to 7.00 | 6.00 to 7.00 | 6.00 to 7.00 | 6.00 to 7.00 | 6.00 to 7.00 | CCn1c(-c2cccnc2[C@H](C)OC)c2c3cc(ccc31)-c1csc(n1)C[C@H](NC(=O)[C@H](C(C)C)N(C)C(=O)N1C[C@H]3CCN(C)[C@H]3C1)C(=O)N1CCC[C@H](N1)C(=O)OCC(C)(C)C2 [Compound A568] |  | 6.00 to 7.00
6.00 to 7.00 | 7.00 to 8.00 | 7.00 to 8.00 | 6.00 to 7.00 | 6.00 to 7.00 | 6.00 to 7.00 | 5.00 to 6.00 | 6.00 to 7.00 | 6.00 to 7.00 | 6.00 to 7.00 | 6.00 to 7.00 | 6.00 to 7.00 | 5.00 to 6.00 | 6.00 to 7.00 | 6.00 to 7.00 | CCn1c(-c2cccnc2[C@H](C)OC)c2c3cc(ccc31)-c1csc(n1)C[C@H](NC(=O)[C@H](C(C)C)N(C)C(=O)N(C)[C@H]1CCCN(C)C1)C(=O)N1CCC[C@H](N1)C(=O)OCC(C)(C)C2 [Compound A588] |  | 6.00 to 7.00
